Assay in all cases: inhibition of tumour cell growth, NCI panel, 48 h
Test [1] deals with HCC-2998 colon.
The test system of test [2] is HCT-15 colon.
Test [3] concerns M14 melanoma.
The subject of test [4] is SN12C renal.
The test system of test [5] is NCI-H522 lung.
The test system of test [6] is SW-620 colon.
The test system of test [7] is SF-539 CNS.
In test [8] the test system is U251 CNS.
Test [9] deals with NCI-H23 lung.
Test [10] concerns SF-268 CNS.

SMILES strings stand for the structures.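 Test compounds were applied to cells in 96-well plates for 48 hours at 5 doses. GI50: concentration for 50% inhibition of growth. At the TGI there is no net growth.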

Regarding `CC1COCC(C)N1C1=C(Cl)C(=O)c2ccccc2C1=O` (stereo not given), the GI50 in test [1] was 17.2 µM; in [2], 6.5 µM; in test [3] it was 6.53 µM; in [4], 11.3 µM; in [5] it was 1.59 µM; in test [6], 1.74 µM. The GI50 in test [7] is 14.3 µM; in [8], 11.6 µM; in test [9], 11.2 µM; in test [10] it was 7.85 µM. The TGI in test [1] is 31.1 µM; in test [2], 23.4 µM; in [3], 19.5 µM; in test [4], 23.5 µM; in [5], 3.02 µM; in test [6], 3.24 µM. Further, the TGI in [7] was 28.1 µM; in test [8], 25.7 µM; in test [9] it was 24.7 µM; in [10] it was 21.1 µM.
Turning to `CSc1ccc(C(=O)C(=O)c2ccc(SC)s2)s1`, the TGI in [1], in test [2], in test [3], in test [4], in test [5] and in [6] was more than 10 µM throughout. In addition, the TGI in test [7], in test [8], in [9] and in test [10] was more than 10 µM in each case.
As to `CCOC(=O)C(NC(=O)c1[nH]cnc1/N=N/N(C)C)C(C)C` (stereo not given), the TGI in test [1], in test [2], in test [3], in test [4], in test [5] and in test [6] was more than 100 µM in each case. The TGI in test [7], in test [8], in test [9] and in [10] was more than 100 µM in each case.
Turning to `CCOP(=O)(Nc1ccc2oc(=O)c3ccccc3c2c1)OCC`, the TGI in test [1], in test [2], in test [3], in [4], in test [5] and in test [6] was more than 100 µM in each case. Besides, the TGI in test [7], in test [8], in [9] and in test [10] was more than 100 µM each time.
As to `Nc1ccc2c(c1)c(N)nn2C(=O)Nc1ccc(Cc2ccccc2)cc1`, the GI50 was 4.17 µM in [1]; 2.75 µM in test [2]; 4.59 µM in test [3]; 13.4 µM in test [4]; 14.7 µM in test [5]; 4.48 µM in test [6]. Also, the GI50 in [7] was 8.7 µM; in [8], 6.53 µM; in [9], 16.9 µM; in [10], 13 µM. For the same molecule, the TGI in test [1] was found to be 14.8 µM; in test [2], 14.2 µM; in test [3], 17.8 µM; in test [4], 30.9 µM; in test [5], 39.6 µM; in [6] it was 18.7 µM. Moreover, the TGI stood at 22.1 µM in test [7], 20.9 µM in test [8], 39.5 µM in test [9] and 30.7 µM in test [10].
Take `COc1ccc(S(=O)(=O)N(C)CC(=O)O)cc1`: the TGI in test [1], in [2], in [3], in test [4], in [5] and in test [6] was more than 100 µM each time. For the same molecule, the TGI in test [7], in [8], in [9] and in test [10] was more than 100 µM in each case.
For the molecule `Cc1ccc(C(C)C)cc1NC(=O)Nc1ccc([N+](=O)[O-])cc1`, the GI50 in [1] was 2.09 µM; in test [2] it was 2.44 µM; in test [3], 2.45 µM; in test [4], 2.28 µM; in test [5], 1.38 µM; in [6], 2.89 µM. Moreover, the GI50 in test [7] is 2.57 µM; in [8], 2.25 µM; in test [9], 2.49 µM; in test [10] it was 2.67 µM. Moreover, the TGI in [1] is 5.44 µM; in test [2] it was 8.94 µM; in test [3], 7.28 µM; in [4], 8.97 µM; in test [5], 3.97 µM; in test [6] it was 10.7 µM. Also, the TGI in test [7] stood at 7.89 µM; in test [8], 6.46 µM; in test [9] it was 7.97 µM; in test [10] it was 12.1 µM.
Regarding `CN(C=O)/C=C/c1cc(O)ccc1O`, the TGI was more than 100 µM in test [1]; 65.8 µM in test [2]; more than 57.9 µM in test [3]; 44.3 µM in [4]; 9.37 µM in test [5]; 37.9 µM in test [6]. Further, the TGI in [7] is more than 65.4 µM; in test [8], more than 69.7 µM; in test [9], 64.3 µM; in test [10], 48.5 µM.
As to `CC1(C)OC2C(COS(N)(=O)=O)SC(n3cnc4cncnc43)C2O1` (stereo not given), the GI50 in test [1], in test [2], in test [3], in test [4], in test [5] and in [6] was more than 100 µM throughout. Also, the GI50 in [7], in test [8], in test [9] and in test [10] was more than 100 µM each time. Besides, the TGI in [1], in [2], in test [3], in test [4], in test [5] and in test [6] was more than 100 µM each time. For the same molecule, the TGI in test [7], in test [8], in test [9] and in test [10] was more than 100 µM in each case.
For `COC(=O)/C(=N\NC(N)=S)C(C#N)c1ccccc1` (stereo not given), the TGI in [1], in test [2], in test [3], in test [4], in test [5] and in test [6] was more than 100 µM in each case. Also, the TGI in test [7], in [8], in [9] and in test [10] was more than 100 µM throughout.
Turning to `N#CC1C=Cc2ccccc2N1C(=O)Oc1ccccc1` (stereo not given), the TGI in test [1], in test [2], in test [3], in [4], in test [5] and in [6] was more than 100 µM each time. The TGI in test [7], in test [8], in [9] and in [10] was more than 100 µM throughout.
As to `CCOC(=O)[C@H]1Nc2ccccc2C2c3ccccc3CC21` (stereo not given in full), the TGI in test [1] is more than 100 µM; in [2] it was more than 100 µM; in [3] it was more than 100 µM; in [4] it was 96.3 µM; in [5], more than 100 µM; in test [6] it was more than 100 µM. For the same molecule, the TGI in test [7], in test [8], in [9] and in test [10] was more than 100 µM throughout.
As for `CC/C=C\C/C=C\C[C@H](O)C/C=C1/C(=O)C=C[C@@H]1C/C=C\CCCC(=O)OC`, the GI50 in [1] was 2.03 µM; in test [2], 0.494 µM; in [3], 1.43 µM; in test [4] it was 1.9 µM; in test [5] it was 1.03 µM; in test [6], 0.834 µM. The GI50 in test [7] was 2.53 µM; in [8], 1.45 µM; in test [9], 2.19 µM; in test [10], 2.57 µM. The TGI in test [1] is 3.48 µM; in test [2], 2.38 µM; in test [3], 3.53 µM; in test [4], 5.01 µM; in [5] it was 2.36 µM; in test [6], 10.3 µM. The TGI in test [7] worked out at 6.09 µM; in test [8], 2.83 µM; in test [9], 5.29 µM; in test [10], 11 µM.
